≈ marks a conversion by molar mass, not a printed value. Calls of active or inactive are those of the source. No cut-off for these calls is given here.
Columns and labels:
Bacillus cereus [1] = assay: Antibacterial activity against Bacillus cereus NCIM 2155 assessed as diameter of growth inhibition zone at 500 ug/ml after 20 hrs by agar disc diffusion method; type: functional
Bacillus cereus [2] = assay: Antibacterial activity against Bacillus cereus NCIM 2155 assessed as diameter of growth inhibition zone at 1000 ug/ml after 20 hrs by agar disc diffusion method; type: functional
Staphylococcus aureus [3] = assay: Antibacterial activity against Staphylococcus aureus MTCC 4102 assessed as diameter of growth inhibition zone at 500 ug/ml after 20 hrs by agar disc diffusion method; type: functional; details: for zone of inhibition at 500 µg/mL: MTCC 4102, 20 h, read-out: DIZ
Staphylococcus aureus [4] = assay: Antibacterial activity against Staphylococcus aureus MTCC 4102 assessed as diameter of growth inhibition zone at 1000 ug/ml after 20 hrs by agar disc diffusion method; type: functional; details: for zone of inhibition at 1000 µg/mL: MTCC 4102, 20 h, read-out: DIZ
Candida albicans [5] = assay: Antifungal activity against Candida albicans MTCC 183 assessed as diameter of growth inhibition zone at 500 ug/ml after 4 days by agar disc diffusion method; type: functional; details: for zone of inhibition at 500 µg/mL: MTCC 183, 96 h, read-out: DIZ
Candida albicans [6] = assay: Antifungal activity against Candida albicans MTCC 183 assessed as diameter of growth inhibition zone at 1000 ug/ml after 4 days by agar disc diffusion method; type: functional; details: for zone of inhibition at 1000 µg/mL: MTCC 183, 96 h, read-out: DIZ
Saccharomyces cerevisiae [7] = assay: Antifungal activity against Saccharomyces cerevisiae NCIM 3044 assessed as diameter of growth inhibition zone at 500 ug/ml after 4 days by agar disc diffusion method; type: functional; details: for zone of inhibition at 500 µg/mL: NCIM 3044, 96 h, read-out: DIZ
Saccharomyces cerevisiae [8] = assay: Antifungal activity against Saccharomyces cerevisiae NCIM 3044 assessed as diameter of growth inhibition zone at 1000 ug/ml after 4 days by agar disc diffusion method; type: functional; details: for zone of inhibition at 1000 µg/mL: NCIM 3044, 96 h, read-out: DIZ
Saccharomyces cerevisiae [9] = assay: Antifungal activity against Saccharomyces cerevisiae NCIM 3044 assessed as growth inhibition after 48 hrs by broth microdilution method; type: functional, organism-based; details: NCIM 3044, 48 h
Escherichia coli [10] = assay: Antibacterial activity against Escherichia coli NCIM 2931 assessed as diameter of growth inhibition zone at 500 ug/ml after 20 hrs by agar disc diffusion method; type: functional; details: for zone of inhibition at 500 µg/mL: NCIM 2931, 20 h, read-out: DIZ
Escherichia coli [11] = assay: Antibacterial activity against Escherichia coli NCIM 2931 assessed as diameter of growth inhibition zone at 1000 ug/ml after 20 hrs by agar disc diffusion method; type: functional; details: for zone of inhibition at 1000 µg/mL: NCIM 2931, 20 h, read-out: DIZ
Pseudomonas aeruginosa [12] = assay: Antibacterial activity against Pseudomonas aeruginosa MTCC 4727 assessed as diameter of growth inhibition zone at 500 ug/ml after 20 hrs by agar disc diffusion method; type: functional; details: for zone of inhibition at 500 µg/mL: MTCC 4727, 20 h, read-out: DIZ
Pseudomonas aeruginosa [13] = assay: Antibacterial activity against Pseudomonas aeruginosa MTCC 4727 assessed as diameter of growth inhibition zone at 1000 ug/ml after 20 hrs by agar disc diffusion method; type: functional; details: for zone of inhibition at 1000 µg/mL: MTCC 4727, 20 h, read-out: DIZ
Bacillus cereus [14] = assay: Antibacterial activity against Bacillus cereus NCIM 2155 assessed as diameter of growth inhibition zone at 10 ug/ml after 20 hrs by agar disc diffusion method; type: functional
Staphylococcus aureus [15] = assay: Antibacterial activity against Staphylococcus aureus MTCC 4102 assessed as diameter of growth inhibition zone at 10 ug/ml after 20 hrs by agar disc diffusion method; type: functional
Candida albicans [16] = assay: Antifungal activity against Candida albicans MTCC 183 assessed as diameter of growth inhibition zone at 10 ug/ml after 4 days by agar disc diffusion method; type: functional
Saccharomyces cerevisiae [17] = assay: Antifungal activity against Saccharomyces cerevisiae NCIM 3044 assessed as diameter of growth inhibition zone at 10 ug/ml after 4 days by agar disc diffusion method; type: functional
Escherichia coli [18] = assay: Antibacterial activity against Escherichia coli NCIM 2931 assessed as diameter of growth inhibition zone at 10 ug/ml after 20 hrs by agar disc diffusion method; type: functional
Pseudomonas aeruginosa [19] = assay: Antibacterial activity against Pseudomonas aeruginosa MTCC 4727 assessed as diameter of growth inhibition zone at 10 ug/ml after 20 hrs by agar disc diffusion method; type: functional
Candida albicans [20] = assay: Antifungal activity against Candida albicans MTCC 183 assessed as assessed as growth inhibition after 48 hrs by broth microdilution method; type: functional, organism-based; details: MTCC 183, 48 h
Escherichia coli [21] = assay: Antibacterial activity against Escherichia coli NCIM 2931 assessed as growth inhibition after 24 hrs by broth microdilution method; type: functional, organism-based; details: NCIM 2931, 24 h
Staphylococcus aureus [22] = assay: Antibacterial activity against Staphylococcus aureus MTCC 4102 assessed as growth inhibition after 24 hrs by broth microdilution method; type: functional, organism-based; details: MTCC 4102, 24 h

| Structure (SMILES) | diameter of the inhibition zone (DIZ) (Staphylococcus aureus [3]) | diameter of the inhibition zone (DIZ) (Staphylococcus aureus [4]) | diameter of the inhibition zone (DIZ) (Candida albicans [5]) | diameter of the inhibition zone (DIZ) (Candida albicans [6]) | diameter of the inhibition zone (DIZ) (Escherichia coli [10]) | diameter of the inhibition zone (DIZ) (Escherichia coli [11]) | diameter of the inhibition zone (DIZ) (Pseudomonas aeruginosa [12]) | diameter of the inhibition zone (DIZ) (Pseudomonas aeruginosa [13]) | diameter of the inhibition zone (DIZ) (Bacillus cereus [1]) | diameter of the inhibition zone (DIZ) (Bacillus cereus [2]) | diameter of the inhibition zone (DIZ) (Saccharomyces cerevisiae [7]) | diameter of the inhibition zone (DIZ) (Saccharomyces cerevisiae [8]) | zone of inhibition at 500 µg/mL (Pseudomonas aeruginosa [12]) [mm] | zone of inhibition at 1000 µg/mL (Pseudomonas aeruginosa [13]) [mm] | zone of inhibition at 500 µg/mL (Escherichia coli [10]) [mm] | zone of inhibition at 1000 µg/mL (Escherichia coli [11]) [mm] | further results |
| --- | --- | --- | --- | --- | --- | --- | --- | --- | --- | --- | --- | --- | --- | --- | --- | --- | --- |
| N#CC1CCCN(c2ncc(-c3cccc(F)c3)c3[nH]c(COc4ccccc4)nc23)C1 (stereo not drawn) | inactive | inactive | inactive | inactive | inactive | inactive | inactive | inactive |  |  |  |  |  |  |  |  | zone of inhibition at 500 µg/mL (Bacillus cereus [1]; NCIM 2155, 20 h, read-out: DIZ): 2.8 mm; zone of inhibition at 1000 µg/mL (Bacillus cereus [2]; NCIM 2155, 20 h, read-out: DIZ): 6 mm; zone of inhibition at 500 µg/mL (Saccharomyces cerevisiae [7]): 8.7 mm; zone of inhibition at 1000 µg/mL (Saccharomyces cerevisiae [8]): 19 mm; IC50 (Saccharomyces cerevisiae [9]): 192 µg/mL (≈ 449 µM); MIC (Saccharomyces cerevisiae [9]): 384 µg/mL (≈ 898 µM) |
| CN[C@@H]1[C@H](O[C@H]2[C@H](O[C@H]3[C@H](O)[C@@H](O)[C@H](N=C(N)N)[C@@H](O)[C@@H]3N=C(N)N)O[C@@H](C)[C@]2(O)C=O)O[C@@H](CO)[C@H](O)[C@H]1O [STREPTOMYCIN] |  |  |  |  |  |  |  |  |  |  |  |  |  |  |  |  | zone of inhibition at 10 µg/mL (Bacillus cereus [14]; NCIM 2155, 20 h, read-out: DIZ): 20.2 mm; zone of inhibition at 10 µg/mL (Staphylococcus aureus [15]; MTCC 4102, 20 h, read-out: DIZ): 23.8 mm; diameter of the inhibition zone (DIZ) (Candida albicans [16]): inactive; diameter of the inhibition zone (DIZ) (Saccharomyces cerevisiae [17]): inactive; zone of inhibition at 10 µg/mL (Escherichia coli [18]; NCIM 2931, 20 h, read-out: DIZ): 21.4 mm; zone of inhibition at 10 µg/mL (Pseudomonas aeruginosa [19]; MTCC 4727, 20 h, read-out: DIZ): 20.9 mm |
| Cc1cccc(Cc2nc3c(N4CCCC(C#N)C4)ncc(-c4cccc(F)c4)c3[nH]2)c1 (stereo not drawn) | inactive | inactive |  |  | inactive | inactive |  |  | inactive | inactive | inactive | inactive | 6.2 | 13 |  |  | zone of inhibition at 500 µg/mL (Candida albicans [5]): 6.8 mm; zone of inhibition at 1000 µg/mL (Candida albicans [6]): 15 mm; IC50 (Candida albicans [20]): 206 µg/mL (≈ 485 µM); MIC (Candida albicans [20]): 404 µg/mL (≈ 950 µM) |
| N#CC1CCCN(c2ncc(-c3cccc(F)c3)c3[nH]c(-c4ccco4)nc23)C1 (stereo not drawn) | inactive | inactive | inactive | inactive |  |  | inactive | inactive | inactive | inactive |  |  |  |  | 8 | 16 | zone of inhibition at 500 µg/mL (Saccharomyces cerevisiae [7]): 6.9 mm; zone of inhibition at 1000 µg/mL (Saccharomyces cerevisiae [8]): 15 mm; IC50 (Saccharomyces cerevisiae [9]): 98.8 µg/mL (≈ 255 µM); MIC (Saccharomyces cerevisiae [9]): 296 µg/mL (≈ 765 µM); IC50 (Escherichia coli [21]): 74.5 µg/mL (≈ 192 µM); MIC (Escherichia coli [21]): 198 µg/mL (≈ 510 µM) |
| COc1cc(-c2cnc(N3CCC(C#N)CC3)c3nc(Cc4ccc(Cl)cc4Cl)[nH]c23)ccc1F |  |  | inactive | inactive |  |  |  |  | inactive | inactive | inactive | inactive | 3.5 | 8 | 4.1 | 9 | zone of inhibition at 500 µg/mL (Staphylococcus aureus [3]): 10.5 mm; zone of inhibition at 1000 µg/mL (Staphylococcus aureus [4]): 23 mm; IC50 (Staphylococcus aureus [22]): 100 µg/mL (≈ 196 µM); MIC (Staphylococcus aureus [22]): 200 µg/mL (≈ 392 µM) |
| Cn1cc(-c2cnc(N3CCC(C#N)CC3)c3nc(CCc4ccccc4)[nH]c23)cn1 |  |  |  |  |  |  | inactive | inactive | inactive | inactive | inactive | inactive |  |  | 5.4 | 12 | zone of inhibition at 500 µg/mL (Staphylococcus aureus [3]): 4.2 mm; zone of inhibition at 1000 µg/mL (Staphylococcus aureus [4]): 10 mm; zone of inhibition at 500 µg/mL (Candida albicans [5]): 12.3 mm; zone of inhibition at 1000 µg/mL (Candida albicans [6]): 22 mm; IC50 (Candida albicans [20]): 73.7 µg/mL (≈ 179 µM); MIC (Candida albicans [20]): 195 µg/mL (≈ 475 µM) |
| Cn1cc(-c2cnc(N3CCC(C#N)CC3)c3nc(Cc4ccc(Cl)cc4Cl)[nH]c23)cn1 | inactive | inactive | inactive | inactive | inactive | inactive | inactive | inactive | inactive | inactive | inactive | inactive |  |  |  |  |  |
| OC(Cn1cncn1)(Cn1cncn1)c1ccc(F)cc1F [FLUCONAZOLE] |  |  |  |  |  |  |  |  |  |  |  |  |  |  |  |  | diameter of the inhibition zone (DIZ) (Bacillus cereus [14]): inactive; diameter of the inhibition zone (DIZ) (Staphylococcus aureus [15]): inactive; zone of inhibition at 10 µg/mL (Candida albicans [16]; MTCC 183, 96 h, read-out: DIZ): 25 mm; zone of inhibition at 10 µg/mL (Saccharomyces cerevisiae [17]; NCIM 3044, 96 h, read-out: DIZ): 24 mm; diameter of the inhibition zone (DIZ) (Escherichia coli [18]): inactive; diameter of the inhibition zone (DIZ) (Pseudomonas aeruginosa [19]): inactive |
| N#CC1CCCN(c2ncc(-c3cccc(F)c3)c3[nH]c(CSc4ccccc4)nc23)C1 (stereo not drawn) | inactive | inactive | inactive | inactive | inactive | inactive |  |  | inactive | inactive | inactive | inactive | 5.2 | 11 |  |  |  |

Reference: ChEMBL document CHEMBL3232991, “New polyfunctional imidazo[4,5-C]pyridine motifs: synthesis, crystal studies, docking studies and antimicrobial evaluation” (Eur J Med Chem, 2014)
